Measurements taken from publication PMC4160570, “Effects of proarrhythmic drugs on relaxation time and beating pattern in rat engineered heart tissue” (Basic Research in Cardiology, 2014).
pIC50: −log10 of the molar value. Where two headings read alike, the source gives them in different places.

Experiments:
[1] = test system: rat engineered heart tissue (EHT); details: cited from earlier work
[2] = test system: rat engineered heart tissue (EHT); assay: Action potentials recorded with intracellular microelectrodes in intact, field-stimulated EHTs; assay type: cell-based
Procedure: Action potentials (APs) were recorded with standard intracellular microelectrodes in intact EHTs. […]. Preparations were field-stimulated for at least 1 h (2 Hz) before data acquisition. APs were analyzed off-line using the LabChart® software (ADInstruments, Spechbach, Germany).

[3] = test system: rat engineered heart tissue (EHT); assay: Ca^2+ transients (Fura-2) and contraction of EHTs under electrical stimulation and perfusion; assay type: cell-based; details: for effect on relaxation time T2 under electrical stimulation / effect on intracellular Ca^2+ transients (duration): 2 Hz, 4AP 10 mM, epinephrine 50 nM; for effect on intracellular Ca^2+ transients (duration): in absence and presence of 4AP; for reversibility of effects: after washout; for time course of effects under continuous electrical stimulation and perfusion: quinidine 100 µM, erythromycin 1 mM
Procedure: Intracellular Ca^2+-transients were analyzed in parallel with force under electrical stimulation and continuous perfusion using a novel setup as described previously. The setup consisted of an inverted microscope, a temperature- and O2/CO2-controlled chamber for the 24-well EHT plate, a flow rate-controlled perfusion system, platinum–iridium wire electrodes for field stimulation, a fluorescence light source (IonOptix Hyperswitch), a photomultiplier, video cameras and software (both IonOptix) for the evaluation of contractile activity (edge detection mode). Experiments were done at 4 ml flow/min (per well) and 2–4 Hz stimulation in modified Tyrode’s solution.
For Fura loading, EHTs were incubated in Tyrode’s solution containing 10 µM Fura2-AM (Invitrogen F1221) and Cremophor EL ([…]; Sigma C5135) for 2 h at 37 °C. The ratio of light emission (510 nm) at excitation with 340 and 380 nm light (F340/380 ratio) was used as an index of cytosolic Ca^2+-concentration.
To differentiate between effects on beating rate and relaxation and to analyse intracellular Ca^2+-transients in addition to force, two drugs were additionally analysed under pacing at defined beating rate using a novel modified IonOptix (IonOptix Corporation, Milton, MA, USA) setup. This custom-made setup allowed continuous electrical stimulation and perfusion of EHTs during the measurement. The setup consisted of an inverted microscope, a temperature- and O2/CO2-controlled chamber for the 24-well EHT plate mounted on the microscope stage, a flow rate-controlled perfusion system, platinum wire electrodes for field stimulation and a video camera and software (both IonOptix) for the evaluation of contractile activity (edge detection mode). Experiments were done under a flow rate of approximately 4 ml/min (per well) and stimulation at 2-4 Hz and 7 V. Measurements were done in a modified Tyrode’s solution (mM: NaCl 120, KCl 5.4, MgCl2 1.0, CaCl2 1.8, NaH2PO4 0.4, NaHCO3 22.6, glucose 5.0, Na2EDTA 0.05, ascorbic acid 0.3). EHTs were equilibrated for 20 min in Tyrode’s solution (baseline) and then exposed to the respective drug for up to 20 min. Reversibility of drug effects was determined after 20 min perfusion in drug-free Tyrode’s solution.
For measurement of intracellular Ca^2+-transients, EHTs were incubated in Tyrode’s solution containing 10 µM Fura2-AM (Invitrogen F1221) and the non-ionic detergent Cremophor EL (0.0075%; Sigma C5135) for 2 h at 37 °C. After washing the EHTs for 10 min in Tyrode’s solution, measurements under perfusion and stimulation of Ca^2+-transients were performed in the same way as for force of contraction, but signals were evaluated by a 10x objective (instead of 1.25x for force) and a photomultiplier.The ratio of the emission intensity of light (510 nm) from EHTs alternatively excited at 340 and 380 nm (F340/380 ratio) was used as an index of cytosolic Ca^2+-concentration. Data were evaluated either with the IonOptix software or a customized software or manually when peaks were severely deformed.

[4] = test system: Ito; parameters: method as in PMID 17446473; details: adult rat ventricular myocytes; cited from earlier work
[5] = test system: rat engineered heart tissue (EHT); assay: Video-optical analysis of contractile parameters of spontaneously beating rat EHTs (50 nM epinephrine); details: for effect on T2, drug alone: 1–1,000 nM, even at high concentrations (1,000 nM); for concentration response curve (T2) in the presence of 4AP: 4AP 3 mM; for significant T2 prolongation (p<0.05 and at least 15 % vs baseline): 1-, 10-, 100-fold FTPC, 50 nM epinephrine, n = 4–8
[6] = test system: rat engineered heart tissue (EHT)
[7] = test system: IKr; details: read-out: IC50 (IKr blocker); cited from earlier work
[8] = test system: rat; details: in vivo; cited from earlier work
[9] = test system: mouse; details: in vivo; cited from earlier work
[10] = test system: IKs; parameters: method as in PMID 23896226; details: read-out: IC50 (IKs blocker); cited from earlier work
[11] = test system: Ito; parameters: method as in PMID 23896226; details: cited from earlier work
[12] = test system: ICa; parameters: method as in PMID 23896226; details: cited from earlier work

**Q.** Which “effect on relaxation time T2 in a previous EHT study” value (“effect … in a previous EHT study” below) [1] does the source give for `CCS(=O)(=O)N(C)[C@H]1c2cc(C#N)ccc2OC(C)(C)[C@@H]1O` (racemic) [chromanol 293b] here?
**A.** The value was “caused concentration-dependent prolongations of relaxation time T2”.

**Q.** And the “prolongation of relaxation (T2)” value ([1]; seen previously in EHTs)?
**A.** The value was “+710%”.

**Q.** For `Nc1ccncc1` [4-aminopyridine (4AP), 4-aminopyridine], which “action potential duration (APD90)” value ([2]; 4AP 10 mM, 2 Hz, increased from a mean of 113 ms (vehicle control)) is on record?
**A.** The value was 175 ms.

**Q.** And the “effect on relaxation time T2 under electrical stimulation” value [3]?
**A.** Its value is “increased T2”.

**Q.** And the “effect on intracellular Ca^2+ transients (duration)” value [3]?
**A.** The value was “prolonged intracellular Ca^2+ transients”.

**Q.** What about the pIC50 [4] of the same molecule?
**A.** The pIC50 was 3.01.

**Q.** And the “concentration starting to prolong T2 relative to IC50 in adult rat cardiac myocytes” value ([5]; 3 mM)?
**A.** The value was 3 fold IC50.

**Q.** What about the “effect on beating pattern” value ([5]; 4AP 10 mM) of the same molecule?
**A.** Its value is “induced beat-to-beat irregularities, variations of twitch amplitude and aftercontractions”.

**Q.** And the “prolongation of relaxation (T2)” value ([5]; 4AP 30 mM, cumulative, 45 min per concentration)?
**A.** Its value is “+502%”.

**Q.** What about the “concentration at which T2 prolongation reaches significance” value ([5]; cumulative concentrations, 45 min each) of the same molecule?
**A.** Its value is 3 mM.

**Q.** With `c1ccc(C2(c3ccccc3)CC2C2=NCCN2)cc1` (centres unmarked) [Cibenzoline] as the molecule, how does the “published IKs IC50 relative to threshold for group 1 or 2 effects” value [6] read?
**A.** Its value is “at or below the threshold for group 1 or 2 effects”.

**Q.** What about the “significant T2 prolongation (p<0.05 and at least 15 % vs baseline)” value ([6]; Wistar, rat) of the same molecule?
**A.** Its value is “Significant T2 prolongations”.

**Q.** Which results are given for `COc1ccc([C@@H]2Sc3ccccc3N(CCN(C)C)C(=O)[C@@H]2OC(C)=O)cc1` [Diltiazem]?
**A.** negative inotropic effect [6]: lack of significant negative inotropic effects; T2-effective concentrations ([6]; Wistar, rat): 100 fold FTPC; significant T2 prolongation (p<0.05 and at least 15 % vs baseline) ([6]; Wistar, rat): Significant T2 prolongations

**Q.** With `Cc1cccc(CCN2CCC(C(=O)c3ccc(NS(C)(=O)=O)cc3)CC2)n1` [E-4031] as the molecule, how does the pIC50 [7] read?
**A.** Its pIC50 is […].

**Q.** What about the “effect on T2, drug alone” value [5] of the same molecule?
**A.** Its value is “Neither E-4031 nor HMR-1556 affected T2”.

**Q.** For `CC[C@H]1OC(=O)[C@H](C)[C@@H](O[C@H]2C[C@@](C)(OC)[C@@H](O)[C@H](C)O2)[C@H](C)[C@@H](O[C@@H]2O[C@H](C)C[C@H](N(C)C)[C@H]2O)[C@](C)(O)C[C@@H](C)C(=O)[C@H](C)[C@@H](O)[C@]1(C)O` [Erythromycin], which reversibility of effects [3] is on record?
**A.** Its reversibility of effects is “fully reversible after washout”.

**Q.** And the “time course of effects under continuous electrical stimulation and perfusion” value [3]?
**A.** Its value is “first prolonged T2, reduced force and then induced an autonomous chaotic contraction pattern”.

**Q.** What about the “effect … in a previous EHT study” value [1] of the same molecule?
**A.** The value was “caused concentration-dependent prolongations of relaxation time T2”.

**Q.** And the LD50 [8]?
**A.** Its LD50 is 4.600 mg∙kg^-1 (rat, p. o.) 2.580 mg∙kg^-1 (mouse, p. o.).

**Q.** And the LD50 [9]?
**A.** The LD50 was 4.600 mg∙kg^-1 (rat, p. o.) 2.580 mg∙kg^-1 (mouse, p. o.).

**Q.** And the “significant T2 prolongation (p<0.05 and at least 15 % vs baseline)” value [5]?
**A.** The value was “Significant T2 prolongations”.

**Q.** And the “irregular beating as the primary effect” value ([5]; sinusoidal fluctuation of twitch amplitudes, time dependent)?
**A.** Its value is “induced irregular beating”.

**Q.** What does the source list for `CN([C@H]1c2cc(OCCCC(F)(F)F)ccc2OC(C)(C)[C@@H]1O)S(C)(=O)=O` [HMR-1556]?
**A.** pIC50 [10]: 7.98; pIC50 [11]: 4.47; pIC50 [12]: 4.56; effect on T2, drug alone [5]: Neither E-4031 nor HMR-1556 affected T2; concentration response curve (T2) in the presence of 4AP [5]: shifted to the left

**Q.** With `CC(=O)N1CCN(c2ccc(OCC3COC(Cn4ccnc4)(c4ccc(Cl)cc4Cl)O3)cc2)CC1` (centres unmarked) [Ketoconazole] as the molecule, how does the “significant T2 prolongation (p<0.05 and at least 15 % vs baseline)” value ([6]; Wistar, rat) read?
**A.** Its value is “Significant T2 prolongations”.

**Q.** And the LD50 [8]?
**A.** Its LD50 is 166 mg∙kg^-1 (rat, p. o.).

**Q.** Which “action potential duration (APD90)” value ([2]; quinidine 100 µM, increased from 179 ms) does the source give for `C=C[C@H]1C[N@@]2CC[C@H]1C[C@@H]2[C@@H](O)c1ccnc2ccc(OC)cc12` [Quinidine] here?
**A.** The value was 232 ms.

**Q.** What about the reversibility of effects [3] of the same molecule?
**A.** Its reversibility of effects is “fully reversible after washout”.

**Q.** What about the “time course of effects under continuous electrical stimulation and perfusion” value [3] of the same molecule?
**A.** Its value is “marked, time-dependent prolongation of T2 and a reduction in force, which was then followed by the development of a slower rhythm independent of pacing”.

**Q.** And the “effect … in a previous EHT study” value [1]?
**A.** The value was “caused concentration-dependent prolongations of relaxation time T2”.

**Q.** What about the T2-threshold concentration [5] of the same molecule?
**A.** The T2-threshold concentration was 100 µM.

**Q.** What about the “published IC50 values for hERG and Ito relative to threshold for T2 prolongation or irregularity” value [5] of the same molecule?
**A.** Its value is “at or below the threshold for T2 prolongation or irregularity”.

**Q.** And the “published IKs IC50 relative to threshold for group 1 or 2 effects” value [5]?
**A.** Its value is “at or below the threshold for group 1 or 2 effects”.

**Q.** What about the “significant T2 prolongation (p<0.05 and at least 15 % vs baseline)” value [5] of the same molecule?
**A.** Its value is “Significant T2 prolongations”.

**Q.** With `COc1ccc(CCN(C)CCCC(C#N)(c2ccc(OC)c(OC)c2)C(C)C)cc1OC` (centres unmarked) [Verapamil] as the molecule, how does the “effect on force (group 3)” value [6] read?
**A.** Its value is “decrease in force”.

**Q.** What about the “effect on the T2-prolonging effect of 4AP” value [5] of the same molecule?
**A.** The value was “no discernible effect”.

**Q.** With `CNC[C@H](O)c1ccc(O)c(O)c1` [epinephrine] as the molecule, how does the “effect on relaxation time T2 under electrical stimulation” value [3] read?
**A.** Its value is “shortened T2”.

**Q.** What about the “effect on intracellular Ca^2+ transients (duration)” value [3] of the same molecule?
**A.** The value was “shortened it”.

**Q.** And the “change of frequency of beating in the burst” value ([5]; epinephrine 50 nM)?
**A.** The value was 15–20%.

**Q.** What about the “beating frequency in the bursts” value ([5]; epinephrine 50 nM, 4.4-4.6 Hz without drug) of the same molecule?
**A.** Its value is 5-5.6 Hz.
